Measurements from US9718796B2, “Substituted benzoazepines as toll-like receptor modulators” (VENTIRX PHARMACEUTICALS, INC., priority 2011, dated 2017).
Read-outs that look alike come from different tables or passages of the source.

Experiments:
[1] = system: IL-8 production in human PBMC stimulated with CL075; experiment: Human PBMC assay: inhibition of IL-8 production stimulated with CL075 (ELISA); assay type: cell-based; conditions: 3 to 1000 nM antagonist, 2 hours before CL075 100 ng/ML (400 nM), overnight; one donor, duplicate wells
Procedure: PBMCs contain a mixture of cells including monocytes and myeloid dendritic cells (mDCs) that express TLR8. […] The ability of TLR8 antagonists to inhibit […] in human PBMCs was evaluated. […] Data shown in FIG. 1 are a representative experiment from one donor evaluated in duplicate culture wells. […] At the end of the incubation, cells were centrifuged and cell culture supernatants were analyzed for IL-8 by ELISA (eBiosciene kit) per the manufacturer's instructions.
The experiment shown in FIG. 1 was repeated in multiple donors and with additional TLR8 antagonist molecules (see FIG. 2). […] Percent inhibition is shown on the y-axis and concentrations of TLR8 antagonists (3-1000 nM) are shown on the x-axis in FIG. 2.

[2] = target: T1, hTLR8 (Homo sapiens, UniProt Q9NR97); experiment: HEK-293 hTLR8 transfectant antagonist assay (NF-κB driven SEAP reporter); assay type: cell-based; conditions: hTLR8 reporter cells
T1 construct: host or cells: HEK293 cells stably transfected with hTLR8
T1 sequence (Q9NR97 27-1041): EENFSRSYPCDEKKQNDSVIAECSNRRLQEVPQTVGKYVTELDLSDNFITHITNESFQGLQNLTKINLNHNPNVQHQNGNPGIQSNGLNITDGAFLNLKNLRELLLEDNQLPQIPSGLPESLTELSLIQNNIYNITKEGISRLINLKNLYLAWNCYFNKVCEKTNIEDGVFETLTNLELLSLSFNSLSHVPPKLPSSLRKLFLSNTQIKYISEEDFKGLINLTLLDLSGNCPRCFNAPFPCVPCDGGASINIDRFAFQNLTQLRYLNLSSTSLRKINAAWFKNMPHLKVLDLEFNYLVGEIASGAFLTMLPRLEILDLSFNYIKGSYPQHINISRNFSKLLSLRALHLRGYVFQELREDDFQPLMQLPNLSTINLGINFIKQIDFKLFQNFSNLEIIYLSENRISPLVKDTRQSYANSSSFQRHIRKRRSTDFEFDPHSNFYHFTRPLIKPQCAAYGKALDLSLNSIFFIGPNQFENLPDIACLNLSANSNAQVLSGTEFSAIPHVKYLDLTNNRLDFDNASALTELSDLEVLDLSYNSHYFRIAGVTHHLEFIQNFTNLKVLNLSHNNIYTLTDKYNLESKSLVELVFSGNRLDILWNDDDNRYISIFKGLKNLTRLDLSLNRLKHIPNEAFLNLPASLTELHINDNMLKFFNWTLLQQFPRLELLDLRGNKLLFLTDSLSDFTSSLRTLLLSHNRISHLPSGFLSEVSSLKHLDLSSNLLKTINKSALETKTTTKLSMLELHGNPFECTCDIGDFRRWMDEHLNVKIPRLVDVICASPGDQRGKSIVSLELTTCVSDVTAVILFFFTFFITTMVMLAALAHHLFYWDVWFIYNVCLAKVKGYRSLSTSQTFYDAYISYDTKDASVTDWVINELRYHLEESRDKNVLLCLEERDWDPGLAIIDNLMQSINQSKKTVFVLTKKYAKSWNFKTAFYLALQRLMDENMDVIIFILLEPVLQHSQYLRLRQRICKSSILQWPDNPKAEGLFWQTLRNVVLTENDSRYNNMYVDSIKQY
Procedure: The HEK-293 hTLR transfectant assay employs HEK293 cells stably transfected with various hTLRs and transiently co-transfected with a plasmid containing an NF-κB driven secreted embryonic alkaline phosphate (SEAP) reporter gene. Stimulation of TLRs activates their downstream signaling pathways and induces nuclear translocation of the transcription factor NF-κB. Reporter gene activity is then measured using a spectrophotometric assay. To measure antagonist activity, human embryonic kidney (HEK) cells (e.g., 293XL-hTLR8 cells available from InvivoGen, San Diego, Calif.) are prepared according to supplier's instructions and incubated with various concentrations of test compound overnight. The amount of induced […] is measured by reading the absorbance at 650 nm. The compounds of the invention have an MC50 of 25 μM or less, wherein MC50 is defined as the concentration at which 50% of maximum induction is seen. For the TLR8 antagonist assays, cells are transiently transfected with the reporter gene on Day 1 per the supplier's instructions. Antagonist compounds are added to the cultures on Day 2 followed by addition of a TLR8 agonist approximately 2 hours later. Cultures are incubated overnight and SEAP activity is measured on Day 3. In a typical assay, 50,000 HEK239 hTLR8 cells are seeded per culture well and transiently transfected with the SEAP reporter gene. Antagonists are added to cultures in culture medium and […] DMSO over a concentration range of 0.1 nanomolar to 10 micromolar. TLR8 agonists are added to cultures 2 hours later at a fixed concentration (e.g., 1 micromolar or 10 micromolar of Compound A) and cultures are then incubated for 16-24 hrs at 37° C. in a humidified CO incubator. Antagonists are also evaluated for activity in the absence of agonist. TLR8 antagonist activity was measured in a hTLR8 assay format, measuring IC50 values. […] IC50s were then calculated.

[3] = IC50, nM, vs. 3M002 10 μM, agonist 3M002 10 μM
[4] = IC50, nM, vs. VTX-378 1 μM, TLR8 agonist VTX-378 (Compound A) 1 μM
[5] = TLR8 agonist VTX-378 (Compound A) 0.5 μM, read-out: IC50, nM, vs. VTX-378 0.5 μM
[6] = IC50, nM, vs. 3M002 1 μM, agonist 3M002 1 μM

Compound	IL-8 levels in human PBMC stimulated with CL075 (FIG. 1) [1]	IC50 [2, 3]	IC50 [2, 4]	IC50 [2, 5]	IC50 [2, 6]
CCCN(CCC)C(=O)C1=Cc2cc(-c3ccc(C(=O)N4CCCC4)cc3)ccc2N=C(N)C1 [Compound 2987, 2-Amino-N,N-dipropyl-7-[4-(pyrrolidin-1-ylcarbonyl)phenyl]-3H-1-benzazepine-4-carboxamide]	reduced in a dose dependent fashion	–	–	–	–
CCOC(=O)Nc1ccc(-c2ccc3c(c2)C=C(C(=O)OCC)CC(N)=N3)c(Cl)c1 [Compound 3261, Ethyl 2-amino-7-{2-chloro-4-[(ethoxycarbonyl)amino]phenyl}-3H-1-benzazepine-4-carboxylate]	reduced in a dose dependent fashion	< 1000 nM	< 1000 nM	< 1000 nM	–
CCOC(=O)C1=Cc2cc(-c3ccc(NC(=O)N(C)C)cc3)ccc2N=C(N)C1 [Compound 3290, Ethyl 2-amino-7-{4-[(dimethylcarbamoyl)amino]phenyl}-3H-1-benzazepine-4-carboxylate]	–	1000 to 10000 nM	1000 to 10000 nM	< 1000 nM	< 1000 nM
CCOC(=O)C1=Cc2cc(-c3cccc(C)c3Cl)ccc2N=C(N)C1 [Compound 3294, Ethyl 2-amino-7-(2-chloro-3-methylphenyl)-3H-1-benzazepine-4-carboxylate]	–	–	1000 to 10000 nM	1000 to 10000 nM	–
CCOC(=O)C1=Cc2cc(-c3ccc(N4CCOC4=O)cc3)ccc2N=C(N)C1 [Compound 3300, Ethyl 2-amino-7-[4-(2-oxo-1,3-oxazolidin-3-yl)phenyl]-3H-1-benzazepine-4-carboxylate]	–	< 1000 nM	< 1000 nM	< 1000 nM	< 1000 nM
CCOC(=O)C1=Cc2cc(-c3ccc(C(=O)N4CCCC4)cc3Cl)ccc2N=C(N)C1 [Compound 3322]	–	< 1000 nM	< 1000 nM	< 1000 nM	–
CCCN(CC(N)=O)C(=O)C1=Cc2cc(-c3ccc(NC(=O)OCC)cc3Cl)ccc2N=C(N)C1 [Compound 3336, Ethyl (4-{2-amino-4-[(2-amino-2-oxoethyl)(propyl)carbamoyl)-3H-1-benzazepin-7-yl}-3-chlorophenyl)carbamate]	–	1000 to 10000 nM	1000 to 10000 nM	< 1000 nM	< 1000 nM
CCCN(CC(N)=O)C(=O)C1=Cc2cc(-c3ccc(C(=O)N4CCCC4)cc3Cl)ccc2N=C(N)C1 [Compound 3342, 2-Amino-N-(2-amino-2-oxoethyl)-7-[2-chloro-4-(pyrrolidin-1-ylcarbonyl)phenyl]-N-propyl-3H-1-benzazepine-4-carboxamide]	–	< 1000 nM	< 1000 nM	< 1000 nM	–
CCCN(CC(N)=O)C(=O)C1=Cc2cc(-c3ccc(C(=O)N4CCCC4)cc3C)ccc2N=C(N)C1 [Compound 3343, 2-Amino-N-(2-amino-2-oxoethyl)-7-[2-methyl-4-(pyrrolidin-1-ylcarbonyl)phenyl]-N-propyl-3H-1-benzazepine-4-carboxamide]	–	–	< 1000 nM	< 1000 nM	–
CCOC(=O)C1=Cc2cc(-c3ccc(C(=O)N4CCCC4)cc3)ccc2N=C(N)C1(C)C [Compound 3348, Ethyl 2-amino-3,3-dimethyl-7-[4-(pyrrolidin-1-ylcarbonyl)phenyl]-3H-1-benzazepine-4-carboxylate]	reduced in a dose dependent fashion	–	–	–	–
CCOC(=O)C1=Cc2cc(-c3cccc(OC)c3Cl)ccc2N=C(N)C1 [Compound 3386, Ethyl 2-amino-7-(2-chloro-3-methoxyphenyl)-3H-1-benzazepine-4-carboxylate]	–	–	< 1000 nM	< 1000 nM	–
CCOC(=O)C1=Cc2cc(-c3ccc(N4CCOC4=O)cc3Cl)ccc2N=C(N)C1 [Compound 3387, Ethyl 2-amino-7-[2-chloro-4-(2-oxo-1,3-oxazolidin-3-yl)phenyl]-3H-1-benzazepine-4-carboxylate]	reduced in a dose dependent fashion	< 1000 nM	< 1000 nM	< 1000 nM	–
NC1=Nc2ccc(-c3ccc(C(=O)N4CCCC4)cc3)cc2C=C(Br)C1 [Compound 3444]	–	–	< 1000 nM	< 1000 nM	–
CCOC(=O)C1=Cc2cc(-c3ccc(C(=O)N4CCCC4)cc3)ccc2N=C2NCCC12 (stereo not drawn) [Compound 3448]	reduced in a dose dependent fashion	–	< 1000 nM	< 1000 nM	–
